Experimental findings from patent US20240158446A1, “CYCLIC COMPOUND HAVING SELECTIVE INHIBITORY ACTION ON KRAS OVER HRAS AND NRAS” (CHUGAI SEIYAKU KABUSHIKI KAISHA, priority 2021, published 2024) are described below.

Broadly, the Kd is the constant that tells how readily two partners part at equilibrium.

Like-named read-outs stand apart in the source and are kept apart here. Where a SMILES comes first, the peptide text is derived from it. Bridges are numbered along the chain shown (N, C = ends). [ ]: non-standard residue; d: D form. The star is where a group is joined. hPhe(3-Cl-4-CF3) = N[C@@H](CCc1ccc(C(F)(F)F)c(Cl)c1)C(=O)O; NPrPhe(4-CF3) = CCCN[C@@H](Cc1ccc(C(F)(F)F)cc1)C(=O)O; NMeGly(cPent) = CN[C@H](C(=O)O)C1CCCC1; Gly(cPent) = N[C@H](C(=O)O)C1CCCC1; NMeD = CN[C@@H](CC(=O)O)C(=O)O; NMeL = CN[C@@H](CC(C)C)C(=O)O; Morpholide = C1CN(*)CCO1; NMeA = CN[C@@H](C)C(=O)O; Ac5c = NC1(C(=O)O)CCCC1; Aze = O=C(O)[C@@H]1CCN1; Sar = CNCC(=O)O

For experiment [1], the target named is GDP-bound HRAS wild-type protein (Homo sapiens, UniProt P01112). Nature of the experiment: Binding to HRAS by surface plasmon resonance (SPR), Single Cycle Kinetics. Conditions: SPR, GDP-bound HRAS wild-type protein vs GDP-bound KRAS wild-type protein.
Experiment [2] addresses GDP-bound KRAS wild-type protein (Homo sapiens, UniProt P01116). Nature of the experiment: Binding to KRAS by surface plasmon resonance (SPR), Single Cycle Kinetics. Conditions: GDP-bound KRAS wild-type protein, read-out: KRAS KD. For orientation: In SPR one partner is held on a chip, and binding of the other changes the refractive index at the surface.
Experiment [3] concerns the target GDP-bound NRAS wild-type protein (Homo sapiens, UniProt P01111). Description: Binding to NRAS by surface plasmon resonance (SPR), Single Cycle Kinetics. Conditions: SPR, GDP-bound NRAS wild-type protein vs GDP-bound KRAS wild-type protein.
Where [4] appears, read: SPR Single Cycle Kinetics, 1:1 binding model.

Chain of GDP-bound HRAS wild-type protein (P01112 whole entry): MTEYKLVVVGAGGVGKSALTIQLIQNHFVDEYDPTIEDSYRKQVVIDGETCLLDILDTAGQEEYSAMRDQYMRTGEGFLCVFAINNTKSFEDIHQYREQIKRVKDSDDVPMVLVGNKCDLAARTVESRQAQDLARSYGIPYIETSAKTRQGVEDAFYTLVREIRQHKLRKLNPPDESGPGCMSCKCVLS
Chain of GDP-bound NRAS wild-type protein (P01111 whole entry): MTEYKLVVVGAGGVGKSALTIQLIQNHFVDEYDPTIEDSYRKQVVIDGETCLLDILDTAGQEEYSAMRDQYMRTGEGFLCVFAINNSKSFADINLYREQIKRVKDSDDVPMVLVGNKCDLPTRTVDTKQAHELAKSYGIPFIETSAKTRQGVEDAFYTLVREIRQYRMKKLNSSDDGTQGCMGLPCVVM
Chain of GDP-bound KRAS wild-type protein (P01116 whole entry): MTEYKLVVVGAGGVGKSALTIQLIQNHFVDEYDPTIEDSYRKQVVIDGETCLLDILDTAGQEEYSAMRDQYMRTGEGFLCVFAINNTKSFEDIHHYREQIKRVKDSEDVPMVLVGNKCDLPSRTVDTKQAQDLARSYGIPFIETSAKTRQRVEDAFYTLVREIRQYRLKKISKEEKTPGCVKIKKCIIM

In the case of `CCO[C@@H]1C[C@H]2C(=O)NC3(CCCC3)C(=O)N(C)[C@@H](C3CCCC3)C(=O)N(C)[C@H](C(=O)N3CCOCC3)CC(=O)N(C)[C@@H](CC(C)C)C(=O)N[C@@H]([C@@H](C)CC)C(=O)N(C)CC(=O)N(C)[C@H]3CC(C)=CCN(C3=O)[C@@H](Cc3ccc(C(F)(F)F)cc3)C(=O)N(C)CC(=O)N[C@@H](CCc3cc(F)c(C(F)(F)F)c(F)c3)C(=O)N2C1` [PP1038], the “HRAS/KRAS (ratio of KD value for HRAS to KD value for KRAS)” value in experiment [1] was “C (A compound having a KD ratio of 0.1 or more and less than 3 is denoted as C)”. Moreover, the Kd in experiment [2] (SPR, Single Cycle Kinetics) was determined as 3 nM. Also, in experiment [3], the “NRAS/KRAS (ratio of KD value for NRAS to KD value for KRAS)” value is “C (A compound having a KD ratio of 0.1 or more and less than 3 is denoted as C)”.

As for `CCCN1C(=O)[C@@H]2CCN2C(=O)[C@H](C)N(C)C(=O)[C@H](C2CCCC2)NC(=O)[C@H](CC(C)C)N(C)C(=O)C[C@@H](C(=O)N2CCOCC2)N(C)C(=O)[C@H](C2CCCC2)N(C)C(=O)C2(CCCC2)NC(=O)[C@@H]2CCCN2C(=O)[C@H](CCc2ccc(C(F)(F)F)c(Cl)c2)NC(=O)CN(C)C(=O)[C@@H]1Cc1ccc(C(F)(F)F)cc1` [PP0272] ([NMeL][Gly(cPent)][NMeA][Aze][NPrPhe(4-CF3)][Sar][hPhe(3-Cl-4-CF3)]P[Ac5c][NMeGly(cPent)][NMeD]-Morpholide; lactam N-11), in experiment [1], the “HRAS/KRAS (ratio of KD value for HRAS to KD value for KRAS)” value was “B (a compound having 3 or more and less than 10 is denoted as B)”. The Kd in experiment [2] (setting [4]) was 0.17 nM. Also, the “NRAS/KRAS (ratio of KD value for NRAS to KD value for KRAS)” value in experiment [3] is “C (A compound having a KD ratio of 0.1 or more and less than 3 is denoted as C)”.

As to `CCC[C@H]1C(=O)N[C@@H]([C@@H](C)CC)C(=O)N(C)CC(=O)N(C)[C@H]2C/C=C\CCN(C2=O)[C@@H](Cc2ccc(C)cc2)C(=O)N(C)CC(=O)N[C@@H](CCc2cc(F)c(C(F)(F)F)c(F)c2)C(=O)N2C[C@H](OCC)C[C@H]2C(=O)NC2(CC(C)(C)C2)C(=O)N(C)[C@@H](CC(F)(F)F)C(=O)N(C)[C@H](C(=O)N(C)C)CC(=O)N1C` [PP2993], in experiment [1], the “HRAS/KRAS (ratio of KD value for HRAS to KD value for KRAS)” value is “A (a compound having 10 or more and less than 20 is denoted as A)”. For the same compound, in experiment [2] (SPR, Single Cycle Kinetics), the dissociation constant (Kd) worked out at 0.43 nM. Besides, the “NRAS/KRAS (ratio of KD value for NRAS to KD value for KRAS)” value in experiment [3] was “A (a compound having 10 or more and less than 20 is denoted as A)”.

For `CCO[C@@H]1C[C@H]2C(=O)NC3(CCC3)C(=O)N(C)[C@@H](C3CCCC3)C(=O)N(CCC3CCCC3)[C@H](C(=O)N(C)C)CC(=O)N(C)[C@@H](CC(C)C)C(=O)N[C@@H]([C@@H](C)CC)C(=O)N(C)CC(=O)N(C)[C@H]3CCCCCN(C3=O)[C@@H](Cc3ccc(F)cc3)C(=O)N(C)CC(=O)N[C@@H](CCc3ccc(C(F)(F)F)c(Cl)c3)C(=O)N2C1` [PP0976], the “HRAS/KRAS (ratio of KD value for HRAS to KD value for KRAS)” value in experiment [1] is “B (a compound having 3 or more and less than 10 is denoted as B)”. Further, in experiment [2] (SPR, Single Cycle Kinetics), the dissociation constant Kd was found to be 4.8 nM. Also, in experiment [3], the “NRAS/KRAS (ratio of KD value for NRAS to KD value for KRAS)” value was “B (a compound having 3 or more and less than 10 is denoted as B)”.

Turning to `CCC[C@H]1C(=O)N[C@@H](C2CCCC2)C(=O)N(C)CC(=O)N(C)[C@H]2C/C=C\CCN(C2=O)[C@@H](Cc2ccc(C(F)(F)F)cc2)C(=O)N(C)CC(=O)N[C@@H](CCc2ccc(C(F)(F)F)c(Cl)c2)C(=O)N2CC3(CC3)C[C@H]2C(=O)NC2(CC(C)(C)C2)C(=O)N(C)[C@@H](C2CCCC2)C(=O)N(C)[C@H](C(=O)N(C)C)CC(=O)N1C` [PP2986], the “HRAS/KRAS (ratio of KD value for HRAS to KD value for KRAS)” value in experiment [1] was “A (a compound having 10 or more and less than 20 is denoted as A)”. Moreover, in experiment [2] (SPR, Single Cycle Kinetics), the Kd turned out to be 0.34 nM. In addition, the “NRAS/KRAS (ratio of KD value for NRAS to KD value for KRAS)” value in experiment [3] was “AA (a compound having 20 or more is denoted as AA)”.

For `CC[C@H](C)[C@@H]1NC(=O)[C@H](C)N(C)C(=O)C[C@@H](C(=O)N(C)C)N(C)C(=O)[C@H](C2CCCC2)N(C)C(=O)C2(CCCC2)NC(=O)[C@@H]2CC(F)(F)CN2C(=O)[C@H](CCc2cc(F)c(C(F)(F)F)c(F)c2)NC(=O)CN(C)C(=O)[C@H](Cc2ccc(C(F)(F)F)cc2)N2CCCC[C@@H](C2=O)N(C)C(=O)CN(C)C1=O` [PP0583], in experiment [1], the “HRAS/KRAS (ratio of KD value with respect to HRAS to KD value with respect to KRAS)” value was “C (A compound having a KD ratio of 0.1 or more and less than 3 is denoted as C)”. The Kd in experiment [2] (setting [4]) came out at 0.019 nM. Also, in experiment [3], the “NRAS/KRAS (ratio of KD value with respect to NRAS to KD value with respect to KRAS)” value is “C (A compound having a KD ratio of 0.1 or more and less than 3 is denoted as C)”.
